Assay results from patent US20030083227A1, “Novel combination therapy to treat glaucoma” (priority 1999, published 2003).
pIC50: −log10 of the molar value.

Experiments:
mouse IOP [1] = assay: Mouse IOP measured with the Servo-Null Micropipette System (SNMS); type: in vivo; conditions: for ΔIOP after base (1st drug): sequential study; for minimally effective droplet concentration: lowering of mouse IOP; for ΔIOP (after 1st drug): vs previous period; for effect on IOP: alone
Experimental: Black Swiss outbred mice of mixed sex, 7 to 9 weeks old and approximately 30 g in weight, were obtained from Taconic, Inc. (Germantown, N.Y.). Animals were housed in accordance with National Institutes of Health recommendations, maintained under a 12-hour light-dark illumination cycle, and allowed unrestricted access to food and water. IOP measurements were performed at the same time of day (2-6 PM) to minimize diurnal effects on IOP. All procedures conformed to the ARVO Statement for the Use of Animals in Ophthalmic and Vision Research.
Before all IOP measurements, mice received general anesthesia in the form of intraperitoneal ketamine (250 mg/kg), supplemented by topical proparacaine HCl (0.5%; Allergan, Hormigueros, Puerto Rico). After reaching a stable plane of anesthesia confirmed by absent response to foot pinch, the mice were secured in a surgical stereotaxic device (David Kopf Instruments, Tujunga, Calif.), with the head positioned to avoid any pressure on the animal that could affect IOP. A heating pad at 37° C. (Delta Phase Isothermal Pad, Braintree Scientific, Braintree, Mass.) maintained body temperature. Topical proparacaine supplemented general anesthesia, and corneal dehydration was prevented by topical normal saline (309 mOsm), as necessary. The ground electrode was placed on the conjunctiva of the same or the contralateral eye, carefully avoiding any pressure on the eye.
IOP was measured with the Servo-Null Micropipette System (SNMS), an electrophysiologic, nonmanometric method of measuring pressure, previously adapted and validated for measuring IOP in the mouse (Avila et al., 2001A). The exploring, 5-μm micropipette was filled with 3 M KCl solution to ensure that the resistance of the fluid within the tip was much lower than that of the extracellular fluid. The resistance to electrical flow through the micropipette was continuously monitored and was dominated by the electrical resistance at the tip.
After entry of the tip into the anterior chamber, the step change in hydrostatic pressure forced aqueous humor into the micropipette, displacing the low-resistance 3-M KCl filling solution from the tip back toward the shank. The resultant increase in electrical resistance generated a signal to a vacuum-pressure pump that produced an equal counter-pressure that maintained the position of the aqueous humor-KCl interface at the tip of the micropipette, and thus sustains the original electrical resistance. This counter-pressure equaled the hydrostatic pressure outside the micropipette tip, in this instance the IOP. […] Before every measurement, the system was calibrated externally against a mercury manometer in the range from 0 to 50 mm Hg at 5- to 10-mm Hg intervals.
The micropipettes were fabricated from borosilicate glass (1.5 mm outer diameter, 0.84 mm inner diameter, WPI) with a puller (Sutter Instruments, San Rafael, Calif.). The tips were beveled to an outer diameter of 5 μm and a 45° angle with a micropipette beveler (Sutter).
Using the SNMS as described above, the micropipette tip was next placed in the drop of proparacaine on the cornea overlying the pupil of the subject, and the output reading from the SNMS was adjusted to zero. The micropipette was then advanced across the cornea (at 20-30° to the optical axis) into the anterior chamber by a cell-penetration positioning system (model LSS 21200; Burleigh Instruments, Inc., Fishers, N.Y.) and a piezoelectric step driver (model PZ100; Burleigh). IOP was monitored after positioning the micropipette tip in the aqueous humor. The baseline IOP in the present study was 14.2±0.4 mm Hg (n=113). In measuring drug-induced changes in IOP, each animal served as its own series control. All pressures after drug application were compared with those just before the drug was added.
To determine an individual IOP reading, the mean±SEM was calculated during a 3- to 5-minute recording period. Numbers of experiments or eyes are indicated by the symbol n. […]

mouse IOP [2] = conditions: cited from earlier work
PE cells [3] = conditions: applied to PE cells; cited from earlier work
NHE-1 = conditions: cited from earlier work
PE cells [4] = assay: Potency of Na+/H+ antiport inhibitors applied to PE cells; type: cell-based; conditions: amiloride : EIPA
Experimental: Carbonic anhydrase inhibition reduces the rate of production of H^+ and HCO3^−, which in turn must slow the rate of delivery of H^+ and HCO3^− to all cell sites, including the antiports. […] To reach a 10-mM concentration, it was necessary to solubilize the amiloride in 30% DMSO. […] Thus, at a concentration 10 times higher than EIPA's minimal effective concentration, amiloride had no effect, consistent with the known ratio of the potency of these inhibitors (3.9:0.07 μM, or ˜56) when applied to PE cells.

PE cells [5] = assay: Regulatory volume increase (post-RVD RVI) of PE cells, volumetric measurements; type: cell-based, bovine
Experimental: Volumetric measurements were also performed to confirm that these antiports could function in parallel to transfer solution from the extracellular space into the cells.
Since paired Na^+/H^+ and Cl^−/HCO3^− exchangers were known to contribute to the regulatory volume increase (RVI) in many other cells (Hoffmann, Curr Top Membr Transp 30:125-180 (1987)), the regulatory volume increase in the PE cells was examined. However, the secondary RVI was not observed in the PE cells at room temperature. Consequently, the volumetric experiments were conducted at 34-37° C.
The precise time course of the baseline RVI was variable, so that the data of some experiments were better fit to an exponential expression, and others to a linear expression (filled circles, FIG. 2C). […] Secondary RVI was inhibited either by blocking the Na^+/H^+ antiport with 10 μM dimethylamiloride, or by omitting CO2/HCO3^− from the external solution.
Inhibitors were added at the same time that isotonicity was restored (t=24 min).

[6] = single drug, topical 10-μL droplet, 1 mM
[7] = 1st drug 1 mM topical, vs baseline
[8] = single drug, topical 10-μL droplet, 100 μM
[9] = single drug, topical 10-μL droplet, 3 mM

In the case of CCN[C@H]1C[C@H](C)S(=O)(=O)c2sc(S(N)(=O)=O)cc21 [Dorzolamide], the “ΔIOP after base (1st drug)” value (mouse IOP [1]; 1st drug 55.4 mM (200 μg), series followed by BIIB, n=7) was −3.5 ± 0.9 mm Hg, the “ΔIOP after base (1st drug)” value (mouse IOP [1]; 1st drug 55.5 mM (200 μg), series followed by bumetanide, n=4) was −2.0 ± 0.4 mm Hg and the ΔIOP (mouse IOP [1]; single drug, topical 10-μL droplet, 55.4 mM (200 μg)) was −2.9 ± 0.6 mm Hg. For the same compound, the ΔIOP (mouse IOP [1]; single drug, topical 10-μL droplet, 55.4 mM (200 μg), listed as dorzolamide) was “reduces IOP”.
For CC(=O)Nc1nnc(S(N)(=O)=O)s1 [acetazolamide], the “lowering of mouse IOP” value (mouse IOP [2]; intraperitoneal) is given as 11.9±1.3 mm Hg.
For N=C(N)NC(=O)c1nc(Cl)c(N)nc1N [amiloride], the ΔIOP (mouse IOP [1]; 10 mM in 30% DMSO, after pretreatment with vehicle containing 30% DMSO, n=4) is given as 1.0±0.7 mm Hg, the ΔIOP (mouse IOP [1]; [6]) is given as “no significant effect on mouse IOP” and the potency (PE cells [3]) is given as 3.9 µM. The “potency at NHE-1 antiports lower than the amiloride analogues DMA and EIPA” value (NHE-1; Counillon et al., 2000) was 1 to 2 orders of magnitude and the “ratio of the potency of these inhibitors” value (PE cells [4]) was roughly 56.
In the case of CCN(c1nc(N)c(C(=O)NC(=N)N)nc1Cl)C(C)C [EIPA, ethylisopropylamiloride], the “ΔIOP after base (1st drug)” value (mouse IOP [1]; [7]) was −2.4 ± 0.6 mm Hg, the ΔIOP (mouse IOP [1]; [8]) was “+0.8 ± 0.2 mm Hg” and the ΔIOP (mouse IOP [1]; [6]) was −2.6 ± 0.5 mm Hg. For the same compound, the ΔIOP (mouse IOP [1]; [9]) was −4.1 ± 1.0 mm Hg, the “lowering of IOP” value (mouse IOP [1]; single drug, topical, 3 mM) was 4.1±1.0 mm Hg and the “minimally effective droplet concentration” value (mouse IOP [1]; topical) was 1 mM. For the same compound, the potency (PE cells [3]) was 0.07 µM and the pIC50 (NHE-1; Scholz et al. 1995) was 7.30.
In the case of O=S(=O)(O)c1cc(N=C=S)ccc1C=Cc1ccc(N=C=S)cc1S(=O)(=O)O [DIDS, 4,4′-diisothiocyanatostilbene-2,2′-disulfonic acid], the “effect on RVI” value (PE cells [5]; 500 μM, added when isotonicity restored, N=3) was “did not inhibit the RVI”.
For Nc1ncnc2c1ncn2[C@@H]1O[C@H](CO)[C@@H](O)[C@H]1O [adenosine], the “effect on IOP in the contralateral eye” value (mouse IOP [2]; 100 μM, unilateral topical application) is given as “does not alter”.
With CN(C)c1nc(N)c(C(=O)N=C(N)N)nc1Cl [DMA, dimethylamiloride] the “ΔIOP after base (1st drug)” value (mouse IOP [1]; [7]) was −4.0 ± 0.8 mm Hg, the ΔIOP (mouse IOP [1]; [8]) was “+0.9 ± 0.9 mm Hg” and the ΔIOP (mouse IOP [1]; [9]) was −5.0 ± 0.7 mm Hg. The “reduction of IOP of the treated eye” value (mouse IOP [1]; single drug, topical, 1 mM) was 3.8±0.5 mm Hg, the “lowering of IOP” value (mouse IOP [1]; single drug, topical, 3 mM) was 5.0±0.7 mm Hg and the “minimally effective droplet concentration” value (mouse IOP [1]; topical) was 1 mM. For the same compound, the “effect on secondary RVI” value (PE cells [5]; 10 μM, 34-37° C.) was “inhibited”.
In the case of CCCCNc1cc(C(=O)O)cc(S(N)(=O)=O)c1Oc1ccccc1 [Bumetanide], the “change in IOP” value (mouse IOP [1]; 10 mM alone, 4 mice) was −1.0±1.1 mm Hg, the “reduction of IOP” value (mouse IOP [1]; 10 mM bumetanide after topical ethylisopropyl-amiloride, N=6) was 4.0±0.6 mm Hg and the “ΔIOP (after 1st drug)” value (mouse IOP [1]; 2nd drug 10 mM (36.4 μg) after 1 mM BIIB) was −3.9 ± 0.9 mm Hg. The “ΔIOP (after 1st drug)” value (mouse IOP [1]; 2nd drug 10 mM (36.4 μg) after 1 mM DMA) was −3.8 ± 0.7 mm Hg, the “ΔIOP (after 1st drug)” value (mouse IOP [1]; 2nd drug 10 mM (36.4 μg) after 1 mM EIPA) was −4.0 ± 0.6 mm Hg and the “ΔIOP (after 1st drug)” value (mouse IOP [1]; 2nd drug 10 mM (36.4 μg) after 55.5 mM dorzolamide) was −3.9 ± 1.0 mm Hg. For the same compound, the “effect on IOP” value (mouse IOP [1]; N=8, 10 uM-10 mM concentrations in topical drops) was “had no significant effect on IOP”, the “effect on IOP” value (mouse IOP [1]; droplet concentrations of 0.1 to 10 mM (364 ng to 36.4 μg)) was “had no significant effect on IOP” and the ΔIOP (mouse IOP [1]; [8]) was −0.8 ± 0.7 mm Hg. For the same compound, the ΔIOP (mouse IOP [1]; [6]) was −0.7 ± 1.6 mm Hg, the ΔIOP (mouse IOP [1]; single drug, topical 10-μL droplet, 10 mM) was −1.2 ± 0.6 mm Hg and the “effect on RVI” value (PE cells [5]; 10 μM, added when isotonicity restored, N=9) was “did not inhibit the RVI”. For the same compound, the “effect on RVI” value (PE cells [5]; alone, in the nominal absence of CO2/HCO3−, P<0.01) was “substantially inhibited the RVI”.
